According to US10703757B2, “Compounds and methods for CDK8 modulation and indications therefor” (Plexxikon Inc., priority 2016, dated 2020):

Key:
[1] = test system: CDK8 (TCF/LEF luciferase reporter in HCT116 cells); assay: Cell based TCF/LEF reporter assay (HCT116+TCF/LEF luciferase); conditions: Homo sapiens, HCT-116, 24 h
Summary of the method: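 HCT116 cells stably carrying a TCF/LEF-luciferase reporter (endogenous mutant β-catenin), seeded overnight, then exposed to serial compound dilutions for 24 h at 37 °C. Luminescence normalized to CellTiter-Fluor viability signal. % inhibition relative to DMSO and 10 uM CCT251545 controls, with IC50 from nonlinear regression.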

[2] = test system: CDK8 (phosphorylation of STAT1 at serine 727 in A549 cells); assay: Cell based Phospho-STAT1 assay (IFNγ-stimulated A549 cells, AlphaLISA); conditions: Homo sapiens, A549, A549 cells, phospho-STAT1 after IFNγ stimulation
Summary of the method: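 A549 cells given serial compound dilutions for 1 h at 37 °C, then stimulated with IFNγ at 10 ng/mL final for 30 min. Lysate STAT1 Ser727 phosphorylation measured by AlphaLISA; % inhibition vs stimulated/unstimulated DMSO controls, IC50 by nonlinear regression.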

Row | SMILES | IC50 [1] [µM] | IC50 [2] [µM]
1 | CC(C)(O)C#Cc1cccn2ncc(-c3ccc4cc(NS(C)(=O)=O)ccc4c3)c12 [Compound P-0216, N-(6-(4-(3-hydroxy-3-methylbut-1-yn-1-yl)pyrazolo[1,5-a]pyridin-3-yl)naphthalen-2-yl)methanesulfonamide] | 0.1 to 1 | 0.0001 to 0.1
2 | N#CC1CCC(c2cccn3ncc(-c4ccc(-n5cccn5)cc4)c23)CC1 (stereo not drawn) [Compound P-0218, 4-(3-(4-(1H-pyrazol-1-yl)phenyl)pyrazolo[1,5-a]pyridin-4-yl)cyclohexane-1-carbonitrile] | 0.0001 to 0.1 | 0.0001 to 0.1
3 | N#CC1CCN(c2c(-c3ccc(-n4cccn4)cc3)cnc3[nH]ccc23)CC1 [Compound P-0219, 1-(5-(4-(1H-pyrazol-1-yl)phenyl)-1H-pyrrolo[2,3-b]pyridin-4-yl)piperidine-4-carbonitrile] | 0.0001 to 0.1 | 0.0001 to 0.1
4 | N#CC1CCN(c2c(-c3ccc(-n4ccnn4)cc3)cnc3[nH]ccc23)CC1 [Compound P-0220, 1-(5-(4-(1H-1,2,3-triazol-1-yl)phenyl)-1H-pyrrolo[2,3-b]pyridin-4-yl)piperidine-4-carbonitrile] | 0.0001 to 0.1 | 0.0001 to 0.1
5 | COc1ccc2cc(-c3cnc4[nH]ccc4c3N3CCC(C#N)CC3)ccc2n1 [Compound P-0221, 1-(5-(2-methoxyquinolin-6-yl)-1H-pyrrolo[2,3-b]pyridin-4-yl)piperidine-4-carbonitrile] | 0.0001 to 0.1 | 0.0001 to 0.1
6 | CNC(=O)c1ccc2cc(-c3cnn4cccc(C#CC(C)(C)O)c34)ccc2c1 [Compound P-0222, 6-(4-(3-hydroxy-3-methylbut-1-yn-1-yl)pyrazolo[1,5-a]pyridin-3-yl)-N-methyl-2-naphthamide] | 0.0001 to 0.1 | 0.0001 to 0.1
7 | Cc1ccc2cc(-c3cnn4cccc(C5=CCC(C#N)CC5)c34)ccc2n1 (stereo not drawn) [Compound P-0223, 4-(3-(2-methylquinolin-6-yl)pyrazolo[1,5-a]pyridin-4-yl)cyclohex-3-ene-1-carbonitrile] | 0.0001 to 0.1 | 0.0001 to 0.1
8 | N#CC1CC=C(c2cccn3ncc(-c4ccc(-n5ccnn5)cc4)c23)CC1 (stereo not drawn) [Compound P-0224, 4-(3-(4-(1H-1,2,3-triazol-1-yl)phenyl)pyrazolo[1,5-a]pyridin-4-yl)cyclohex-3-ene-1-carbonitrile] | 0.0001 to 0.1 | 0.0001 to 0.1
9 | N#CC1CC=C(c2cccn3ncc(-c4ccc(-n5cccn5)cc4)c23)CC1 (stereo not drawn) [Compound P-0225, 4-(3-(4-(1H-pyrazol-1-yl)phenyl)pyrazolo[1,5-a]pyridin-4-yl)cyclohex-3-ene-1-carbonitrile] | 0.0001 to 0.1 | 0.0001 to 0.1
10 | Cn1ccc(-c2ccc(-c3cnn4cccc(C#CC(C)(C)O)c34)cc2)n1 [Compound P-0226, 2-methyl-4-(3-(4-(1-methyl-1H-pyrazol-3-yl)phenyl)pyrazolo[1,5-a]pyridin-4-yl)but-3-yn-2-ol] | 0.0001 to 0.1 | 0.0001 to 0.1
11 | CC(C)(O)C#Cc1cccn2ncc(-c3ccc(-c4cnoc4)cc3)c12 [Compound P-0228, 4-(3-(4-(isoxazol-4-yl)phenyl)pyrazolo[1,5-a]pyridin-4-yl)-2-methylbut-3-yn-2-ol] | 1 to 10 | 1 to 10
12 | CC(C)(O)C#Cc1cccn2ncc(-c3ccc(-c4cn[nH]c4)cc3)c12 [Compound P-0229, 4-(3-(4-(1H-pyrazol-4-yl)phenyl)pyrazolo[1,5-a]pyridin-4-yl)-2-methylbut-3-yn-2-ol] | 0.0001 to 0.1 | 0.0001 to 0.1
13 | Cc1c(-c2ccc(-c3cnn4cccc(C#CC(C)(C)O)c34)cc2)cnn1C [Compound P-0230, 4-(3-(4-(1,5-dimethyl-1H-pyrazol-4-yl)phenyl)pyrazolo[1,5-a]pyridin-4-yl)-2-methylbut-3-yn-2-ol] | 0.0001 to 0.1 | 0.0001 to 0.1
14 | Cc1cncc(-c2ccc(-c3cnn4cccc(C#CC(C)(C)O)c34)cc2)c1 [Compound P-0231, 2-methyl-4-(3-(4-(5-methylpyridin-3-yl)phenyl)pyrazolo[1,5-a]pyridin-4-yl)but-3-yn-2-ol] | 0.1 to 1 | 0.1 to 1
15 | CCn1cc(-c2ccc(-c3cnn4cccc(C#CC(C)(C)O)c34)cc2)cn1 [Compound P-0232, 4-(3-(4-(1-ethyl-1H-pyrazol-4-yl)phenyl)pyrazolo[1,5-a]pyridin-4-yl)-2-methylbut-3-yn-2-ol] | 0.0001 to 0.1 | 0.0001 to 0.1
16 | Cc1ccncc1-c1ccc(-c2cnn3cccc(C#CC(C)(C)O)c23)cc1 [Compound P-0233, 2-methyl-4-(3-(4-(4-methylpyridin-3-yl)phenyl)pyrazolo[1,5-a]pyridin-4-yl)but-3-yl-2-ol] | 0.1 to 1 | 1 to 10
17 | Cc1cc(-c2ccc(-c3cnn4cccc(C#CC(C)(C)O)c34)cc2)n[nH]1 [Compound P-0234, 2-methyl-4-(3-(4-(5-methyl-1H-pyrazol-3-yl)phenyl)pyrazolo[1,5-a]pyridin-4-yl)but-3-yl-2-ol] | 0.0001 to 0.1 | 0.1 to 1

Row | SMILES | IC50 [1] [µM] | IC50 [2] [µM]
18 | Cc1cc(C#N)cc(-c2ccc(-c3cnn4cccc(C#CC(C)(C)O)c34)cc2)c1 [Compound P-0235, 4′-(4-(3-hydroxy-3-methylbut-1-yn-1-yl)pyrazolo[1,5-a]pyridin-3-yl)-5-methyl-[1,1′-biphenyl]-3-carbonitrile] | 0.1 to 1 | 0.1 to 1
19 | CC(C)(O)C#Cc1cccn2ncc(-c3ccc(-c4cccnc4)cc3)c12 [Compound P-0237, 2-methyl-4-(3-(4-(pyridin-3-yl)phenyl)pyrazolo[1,5-a]pyridin-4-yl)but-3-yn-2-ol] | 0.0001 to 0.1 | 0.0001 to 0.1
20 | Cn1cc(C#Cc2cnc3cccc(N4CCC5(CC4)CC(=O)NC5=O)n23)cn1 [Compound P-0238, 8-(3-((1-methyl-1H-pyrazol-4-yl)ethynyl)imidazo[1,2-a]pyridin-5-yl)-2,8-diazaspiro[4.5]decane-1,3-dione] | 0.0001 to 0.1 | 0.0001 to 0.1
21 | CC(=O)C1CCN(c2cccc3ncc(C#Cc4cnn(C)c4)n23)CC1 [Compound P-0240, 1-(1-(3-((1-methyl-1H-pyrazol-4-yl)ethynyl)imidazo[1,2-a]pyridin-5-yl)piperidin-4-yl)ethan-1-one] | 1 to 10 | 1 to 10
22 | Cn1cc(C#Cc2cnc3cccc(N4CCC(C(N)=O)C4)n23)cn1 (stereo not drawn) [Compound P-0241, 1-(3-((1-methyl-1H-pyrazol-4-yl)ethynyl)imidazo[1,2-a]pyridin-5-yl)pyrrolidine-3-carboxamide] | 0.1 to 1 | 0.1 to 1
23 | COc1ccc2cc(-c3cnn4cccc(C5=CCC(C#N)CC5)c34)ccc2n1 (stereo not drawn) [Compound P-0242, 4-(3-(2-methoxyquinolin-6-yl)pyrazolo[1,5-a]pyridin-4-yl)cyclohex-3-ene-1-carbonitrile] | 0.0001 to 0.1 | 0.0001 to 0.1
24 | N#CC1CC=C(c2c(-c3ccc4c(c3)CNC4=O)cnc3[nH]ccc23)CC1 (stereo not drawn) [Compound P-0244, 4-(5-(1-oxoisoindolin-5-yl)-1H-pyrrolo[2,3-b]pyridin-4-yl)cyclohex-3-ene-1-carbonitrile] | 0.1 to 1 | 0.1 to 1
25 | Cn1cc(-c2ccc(-c3cnn4cccc(C#CCOCCO)c34)cc2)cn1 [Compound P-0245, 2-((3-(3-(4-(1-methyl-1H-pyrazol-4-yl)phenyl)pyrazolo[1,5-a]pyridin-4-yl)prop-2-yn-1-yl)oxy)ethan-1-ol] | 0.1 to 1 | 0.0001 to 0.1
26 | Cn1cc(-c2ccc(-c3cnn4cccc(C#C[C@@](C)(O)c5ccccc5)c34)cc2)cn1 [Compound P-0246, (S)-4-(3-(4-(1-methyl-1H-pyrazol-4-yl)phenyl)pyrazolo[1,5-a]pyridin-4-yl)-2-phenylbut-3-yn-2-ol] | 0.1 to 1 | 0.0001 to 0.1
27 | Cn1cc(-c2ccc(-c3cnn4ccnc(C5CCC(C(N)=O)CC5)c34)cc2)cn1 (stereo not drawn) [Compound P-0247, 4-(3-(4-(1-methyl-1H-pyrazol-4-yl)phenyl)pyrazolo[1,5-a]pyrazin-4-yl)cyclohexane-1-carboxamide] | 0.0001 to 0.1 | 0.0001 to 0.1
28 | Cn1cc(-c2ccc(-c3cnn4cccc(N5C6CCC5CC(C#N)C6)c34)cc2)cn1 (stereo not drawn) [Compound P-0248, 8-(3-(4-(1-methyl-1H-pyrazol-4-yl)phenyl)pyrazolo[1,5-a]pyridin-4-yl)-8-azabicyclo[3.2.1]octane-3-carbonitrile] | 0.0001 to 0.1 | 0.0001 to 0.1
29 | Cc1ccn2ncc(-c3ccc(-c4cnn(C)c4)cc3)c2c1C1=CCC(C#N)CC1 (stereo not drawn) [Compound P-0250, 4-[5-methyl-3-[4-(1-methylpyrazol-4-yl)phenyl]pyrazolo[1,5-a]pyridin-4-yl]cyclohex-3-ene-1-carbonitrile] | 0.0001 to 0.1 | 0.0001 to 0.1
30 | N#CC1CCN(c2cccn3ncc(-c4cccc(OCC(F)(F)F)c4)c23)CC1 [Compound P-0251, 1-(3-(3-(2,2,2-trifluoro-ethoxy)phenyl)pyrazolo[1,5-a]pyridin-4-yl)piperidine-4-carbonitrile] | 1 to 10 | 1 to 10
31 | N#CC1CCN(c2cccn3ncc(-c4cccc(OCc5ccccc5)c4)c23)CC1 [Compound P-0252, 1-(3-(3-(benzyloxy)phenyl)pyrazolo[1,5-a]pyridin-4-yl)piperidine-4-carbonitrile] | 1 to 10 | 1 to 10
32 | Cc1cc(C)n(-c2ccc(-c3cnn4cccc(N5CCC(C#N)CC5)c34)cc2)n1 [Compound P-0253, 1-(3-(4-(3,5-dimethyl-1H-pyrazol-1-yl)phenyl)pyrazolo[1,5-a]pyridin-4-yl)piperidine-4-carbonitrile] | 0.1 to 1 | 0.1 to 1
33 | CC(C)(C)C(=O)Nc1ccc(-c2cnn3cccc(N4CCC(C#N)CC4)c23)cc1 [Compound P-0254, N-(4-(4-(4-cyanopiperidin-1-yl)pyrazolo[1,5-a]pyridin-3-yl)phenyl)pivalamide] | 0.1 to 1 | 0.1 to 1
